In PubChem BioAssay AID2060890 (Molecular Pharmacology Branch, DTP, NCI, 2025):

System: LG0703-F948-PDC complex spheroid viability
Assay: Anticancer human tumor LG0703-F948-PDC patient-derived lung adenocarcinoma cell line growth inhibition [RAS]
Conditions: for IC50: curve of first compound; for viability, T/C: stronger effect = lower value
Method in brief: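 Tumour cells grown as complex spheroids with HUVEC endothelial cells and mesenchymal stem cells, treated with RAS pathway inhibitor combinations. Each agent spans half-log steps from near clinical Cmax, or 10 microM where Cmax is unknown.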
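Also: spheroids exposed to agents for 7 days.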
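For viability, T/C in this document: 100% = DMSO vehicle wells.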

NC1c2ccccc2OC12CCN(c1cnc3c(N4CCCc5ncccc54)n[nH]c3n1)CC2 (centres undefined) + C=CC(=O)N1CCN(c2nc(OCC3CCCN3C)nc3c(F)c(-c4nc(N)cc(C)c4C(F)(F)F)c(Cl)cc23)C(C)C1
IC50 (second compound 0.00316 µM): 38.6 nM | IC50 (second compound 0.01 µM): 47.8 nM | IC50 (second compound 0.0316 µM): 42.8 nM | IC50 (second compound 0.1 µM): 51.7 nM | IC50 (second compound 0.316 µM): 59.1 nM | IC50 (second compound 1 µM): 41.6 nM | viability, T/C (second compound 0.00316 µM, first compound 0.0316 µM): 54.5% | viability, T/C (second compound 0.00316 µM, first compound 0.1 µM): 31.4% | viability, T/C (second compound 0.00316 µM, first compound 0.316 µM): 16% | viability, T/C (second compound 0.00316 µM, first compound 1 µM): 10.9% | viability, T/C (second compound 0.00316 µM, first compound 3.16 µM): 4.54% | viability, T/C (second compound 0.00316 µM, first compound 10 µM): 2.7% | viability, T/C (second compound 0.01 µM, first compound 0.0316 µM): 58.3% | viability, T/C (second compound 0.01 µM, first compound 0.1 µM): 35% | viability, T/C (second compound 0.01 µM, first compound 0.316 µM): 19.9% | viability, T/C (second compound 0.01 µM, first compound 1 µM): 8.08% | viability, T/C (second compound 0.01 µM, first compound 3.16 µM): 5.69% | viability, T/C (second compound 0.01 µM, first compound 10 µM): 1.86% | viability, T/C (second compound 0.0316 µM, first compound 0.0316 µM): 55.8% | viability, T/C (second compound 0.0316 µM, first compound 0.1 µM): 34.1% | viability, T/C (second compound 0.0316 µM, first compound 0.316 µM): 20.5% | viability, T/C (second compound 0.0316 µM, first compound 1 µM): 10.8% | viability, T/C (second compound 0.0316 µM, first compound 3.16 µM): 4.57% | viability, T/C (second compound 0.0316 µM, first compound 10 µM): 1.97% | viability, T/C (second compound 0.1 µM, first compound 0.0316 µM): 60.3% | viability, T/C (second compound 0.1 µM, first compound 0.1 µM): 35.2% | viability, T/C (second compound 0.1 µM, first compound 0.316 µM): 22.8% | viability, T/C (second compound 0.1 µM, first compound 1 µM): 7.04% | viability, T/C (second compound 0.1 µM, first compound 3.16 µM): 4.16% | viability, T/C (second compound 0.1 µM, first compound 10 µM): 1.66% | viability, T/C (second compound 0.316 µM, first compound 0.0316 µM): 69.5% | viability, T/C (second compound 0.316 µM, first compound 0.1 µM): 32.4% | viability, T/C (second compound 0.316 µM, first compound 0.316 µM): 17.3% | viability, T/C (second compound 0.316 µM, first compound 1 µM): 8.03% | viability, T/C (second compound 0.316 µM, first compound 3.16 µM): 4.54% | viability, T/C (second compound 0.316 µM, first compound 10 µM): 1.99% | viability, T/C (second compound 1 µM, first compound 0.0316 µM): 56.2% | viability, T/C (second compound 1 µM, first compound 0.1 µM): 30.1% | viability, T/C (second compound 1 µM, first compound 0.316 µM): 19.4% | viability, T/C (second compound 1 µM, first compound 1 µM): 8.31% | viability, T/C (second compound 1 µM, first compound 3.16 µM): 6.93% | viability, T/C (second compound 1 µM, first compound 10 µM): 3.04%

CCN1CCN(Cc2ccc(Nc3ncc(F)c(-c4cc(F)c5nc(C)n(C(C)C)c5c4)n3)nc2)CC1 + CCn1c(-c2cc(N3CCN(C)CC3)cnc2C(C)OC)c2c3cc(ccc31)-c1csc(n1)CC(NC(=O)C1CC1C)C(=O)N1CCCC(N1)C(=O)OCC(C)(C)C2
IC50 (second compound 0.000949 µM): > 1000 nM | IC50 (second compound 0.003 µM): > 1000 nM | IC50 (second compound 0.00949 µM): < 3.16 nM | IC50 (second compound 0.03 µM): < 3.16 nM | IC50 (second compound 0.0949 µM): < 3.16 nM | IC50 (second compound 0.3 µM): < 3.16 nM | viability, T/C (second compound 0.000949 µM, first compound 0.00316 µM): 82% | viability, T/C (second compound 0.000949 µM, first compound 0.01 µM): 68% | viability, T/C (second compound 0.000949 µM, first compound 0.0316 µM): 60.8% | viability, T/C (second compound 0.000949 µM, first compound 0.1 µM): 68.2% | viability, T/C (second compound 0.000949 µM, first compound 0.316 µM): 63.9% | viability, T/C (second compound 0.000949 µM, first compound 1 µM): 52% | viability, T/C (second compound 0.003 µM, first compound 0.00316 µM): 58.2% | viability, T/C (second compound 0.003 µM, first compound 0.01 µM): 49.1% | viability, T/C (second compound 0.003 µM, first compound 0.0316 µM): 47.7% | viability, T/C (second compound 0.003 µM, first compound 0.1 µM): 53.2% | viability, T/C (second compound 0.003 µM, first compound 0.316 µM): 57% | viability, T/C (second compound 0.003 µM, first compound 1 µM): 48.9% | viability, T/C (second compound 0.00949 µM, first compound 0.00316 µM): 26.1% | viability, T/C (second compound 0.00949 µM, first compound 0.01 µM): 24.8% | viability, T/C (second compound 0.00949 µM, first compound 0.0316 µM): 28.4% | viability, T/C (second compound 0.00949 µM, first compound 0.1 µM): 22% | viability, T/C (second compound 0.00949 µM, first compound 0.316 µM): 31.7% | viability, T/C (second compound 0.00949 µM, first compound 1 µM): 34.5% | viability, T/C (second compound 0.03 µM, first compound 0.00316 µM): 17% | viability, T/C (second compound 0.03 µM, first compound 0.01 µM): 14.6% | viability, T/C (second compound 0.03 µM, first compound 0.0316 µM): 14.7% | viability, T/C (second compound 0.03 µM, first compound 0.1 µM): 17% | viability, T/C (second compound 0.03 µM, first compound 0.316 µM): 18.6% | viability, T/C (second compound 0.03 µM, first compound 1 µM): 26.2% | viability, T/C (second compound 0.0949 µM, first compound 0.00316 µM): 10.1% | viability, T/C (second compound 0.0949 µM, first compound 0.01 µM): 11.1% | viability, T/C (second compound 0.0949 µM, first compound 0.0316 µM): 10.2% | viability, T/C (second compound 0.0949 µM, first compound 0.1 µM): 11.3% | viability, T/C (second compound 0.0949 µM, first compound 0.316 µM): 14.9% | viability, T/C (second compound 0.0949 µM, first compound 1 µM): 23.9% | viability, T/C (second compound 0.3 µM, first compound 0.00316 µM): 9.56% | viability, T/C (second compound 0.3 µM, first compound 0.01 µM): 9.57% | viability, T/C (second compound 0.3 µM, first compound 0.0316 µM): 8.56% | viability, T/C (second compound 0.3 µM, first compound 0.1 µM): 10.3% | viability, T/C (second compound 0.3 µM, first compound 0.316 µM): 13.5% | viability, T/C (second compound 0.3 µM, first compound 1 µM): 18.3%

CCn1c(-c2cccnc2C(C)OC)c2c3cc(ccc31)N1CCOC(CC(NC(=O)C(C(C)C)N(C)C(=O)C3(F)CCN(C(=O)C#CC(C)(C)N(C)C)CC3)C(=O)N3CCCC(N3)C(=O)OCC(C)(C)C2)C1 (centres undefined)
viability, T/C (compound 0.000949 µM): 99.8% [middle of 8 runs] | viability, T/C (compound 0.00949 µM): 101% [middle of 8 runs] | viability, T/C (compound 0.03 µM): 101% [middle of 8 runs] | viability, T/C (compound 0.0949 µM): 82.6% [middle of 8 runs] | viability, T/C (compound 0.3 µM): 50.1% [middle of 8 runs]
